Data on 10 compounds can be found in US20110297235A1, “USE OF TRIARYLAMINE DERIVATIVES AS HOLE-CONDUCTING MATERIALS IN ORGANIC SOLAR CELLS AND ORGANIC SOLAR CELLS CONTAINING SAID TRIARYLAMINE DERIVATIVES” (BASF SE, priority 2009, published 2011).

Series [1] in a line: Glass transition temperature Tg and morphology M by means of DSC. Format: physicochemical.
The nature of series [2]: Decomposition temperature Td by means of TGA. Format: physicochemical.
The nature of series [3]: physchem. To be noted: organic solvent or mixture.

Converted amounts (≈) assume the structure as drawn. Some results are limits rather than exact numbers.

The solubility is the concentration that dissolves in the medium under given conditions. With `COc1ccc(N(c2ccc(OC)cc2)c2ccc(-c3ccc(N(c4ccc(-c5ccc(N(c6ccc(-c7ccc(N(c8ccc(OC)cc8)c8ccc(OC)cc8)cc7)cc6)c6ccc7c(c6)C(C)(C)c6ccccc6-7)cc5)cc4)c4ccc5c(c4)C(C)(C)c4ccccc4-5)cc3)cc2)cc1` [ID369], the “glass transition temperature Tg” value in series [1] turned out to be 154 °C. Also, the “decomposition temperature Td” value in series [2] turned out to be 460 °C. Further, the solubility in series [3] (solubility L in chlorobenzene) was in the range of 300 to 450 mg/mL (≈ 226 to 339 mM); in series [3] (solubility in Ethyl acetate), 140 to 280 mg/mL (≈ 105 to 211 mM); in series [3] (solubility in Tetrahydrofuran) it was 100 to 150 mg/mL (≈ 75.3 to 113 mM); in series [3] (solubility in Toluene) it was 140 to 170 mg/mL (≈ 105 to 128 mM).

For `COc1ccc(N(c2ccc(OC)cc2)c2ccc(-c3ccc(N(c4ccc(-c5ccc(N(c6ccc(-c7ccc(N(c8ccc(OC)cc8)c8ccc(OC)cc8)cc7)cc6)c6cc(F)c(OC)c(F)c6)cc5)cc4)c4cc(F)c(OC)c(F)c4)cc3)cc2)cc1` [ID629], the “glass transition temperature Tg” value in series [1] was 134 °C. In series [2], the “decomposition temperature Td” value turned out to be 430 °C. The solubility is over 2000 mg/mL in series [3] (solubility L in chlorobenzene); over 1500 mg/mL in series [3] (solubility in Anisole); over 1300 mg/mL in series [3] (solubility in Ethyl acetate); over 2000 mg/mL in series [3] (solubility in Tetrahydrofuran); over 1500 mg/mL in series [3] (solubility in Toluene).

Regarding `COc1ccc(N(c2ccc(OC)cc2)c2ccc(-c3ccc(N(c4ccccc4)c4ccc(-c5ccc(N(c6ccccc6)c6ccc(-c7ccc(N(c8ccc(OC)cc8)c8ccc(OC)cc8)cc7)cc6)cc5)cc4)cc3)cc2)cc1` [ID321], the “glass transition temperature Tg” value in series [1] was found to be 143 °C. For the same compound, the “decomposition temperature Td” value in series [2] is 460 °C. The solubility was 900 to 1150 mg/mL (≈ 822 to 1050 mM) in series [3] (solubility L in chlorobenzene), 15 mg/mL (≈ 13.7 mM) in series [3] (solubility in Ethyl acetate), over 240 mg/mL in series [3] (solubility in Tetrahydrofuran) and over 100 mg/mL in series [3] (solubility in Toluene).

Regarding `COc1ccc(N(c2ccc(OC)cc2)c2ccc(-c3ccc(N(c4ccc(OC)cc4)c4ccc(N(c5ccc(OC)cc5)c5ccc(-c6ccc(N(c7ccc(OC)cc7)c7ccc(OC)cc7)cc6)cc5)cc4)cc3)cc2)cc1` [ID446], the “glass transition temperature Tg” value in series [1] was determined as 120 °C. The “decomposition temperature Td” value in series [2] came out at 430 °C. Moreover, the solubility in series [3] (solubility L in chlorobenzene) is 1250 to 2500 mg/mL (≈ 1160 to 2320 mM); in series [3] (solubility in Ethyl acetate) it was 50 to 65 mg/mL (≈ 46.3 to 60.2 mM); in series [3] (solubility in Tetrahydrofuran), 1000 to 2000 mg/mL (≈ 927 to 1850 mM); in series [3] (solubility in Toluene), over 460 mg/mL.

`COc1ccc(C(c2ccc(OC)cc2)c2ccc(N(c3ccc(OC)cc3)c3ccc(-c4ccc(N(c5ccc(OC)cc5)c5ccc(N(c6ccc(OC)cc6)c6ccc(OC)cc6)cc5)cc4)cc3)cc2)cc1` [ID480]: in series [1], the “glass transition temperature Tg” value worked out at 105 °C. Also, in series [2], the “decomposition temperature Td” value came to 430 °C. Moreover, the solubility in series [3] (solubility L in chlorobenzene) is over 280 mg/mL.

Take `CCCCC(CC)COc1ccc(N(c2ccc(-c3ccc(N(c4ccc(OC)cc4)c4ccc(OC)cc4)cc3)cc2)c2ccc(-c3ccc(N(c4ccc(OCC(CC)CCCC)cc4)c4ccc(-c5ccc(N(c6ccc(OC)cc6)c6ccc(OC)cc6)cc5)cc4)cc3)cc2)cc1` (stereo not drawn) [ID568]: the “glass transition temperature Tg” value in series [1] came out at 65 °C. For the same compound, the “decomposition temperature Td” value in series [2] stood at 360 °C. The solubility in series [3] (solubility L in chlorobenzene) was over 650 mg/mL.

For `COc1ccc(N(c2ccc(C)cc2)c2ccc(-c3ccc(N(c4ccc(OC)cc4)c4ccc(-c5ccc(N(c6ccc(OC)cc6)c6ccc(-c7ccc(N(c8ccc(C)cc8)c8ccc(OC)cc8)cc7)cc6)cc5)cc4)cc3)cc2)cc1` [ID572], in series [1], the “glass transition temperature Tg” value came out at 138 °C. In addition, the “decomposition temperature Td” value in series [2] amounted to 450 °C. Also, the solubility is over 900 mg/mL in series [3] (solubility L in chlorobenzene); over 400 mg/mL in series [3] (solubility in Anisole); 60 to 100 mg/mL (≈ 53.4 to 89 mM) in series [3] (solubility in Ethyl acetate); over 800 mg/mL in series [3] (solubility in Tetrahydrofuran); over 500 mg/mL in series [3] (solubility in Toluene).

Turning to `COc1ccc(N(c2ccc(OC)cc2)c2ccc(-c3ccc(N(c4ccc(-c5ccc(N(c6ccc(-c7ccc(N(c8ccc(OC)cc8)c8ccc(OC)cc8)cc7)cc6)c6ccc(C(C)(C)C)cc6)cc5)cc4)c4ccc(C(C)(C)C)cc4)cc3)cc2)cc1` [ID368], the “glass transition temperature Tg” value in series [1] is 154 °C. Further, the “decomposition temperature Td” value in series [2] is 460 °C. Also, the solubility is 500 to 1000 mg/mL (≈ 414 to 828 mM) in series [3] (solubility L in chlorobenzene), over 380 mg/mL in series [3] (solubility in Ethyl acetate), 180 to 360 mg/mL (≈ 149 to 298 mM) in series [3] (solubility in Tetrahydrofuran) and over 240 mg/mL in series [3] (solubility in Toluene).

Regarding `CCCCCCC1(CCCCCC)c2cc(N(c3ccc(OC)cc3)c3ccc(-c4ccc(N(c5ccc(OC)cc5)c5ccc(OC)cc5)cc4)cc3)ccc2-c2ccc(N(c3ccc(OC)cc3)c3ccc(-c4ccc(N(c5ccc(OC)cc5)c5ccc(OC)cc5)cc4)cc3)cc21` [ID450], the “glass transition temperature Tg” value in series [1] turned out to be 105 °C. The “decomposition temperature Td” value in series [2] came to 420 °C. Further, the solubility in series [3] (solubility L in chlorobenzene) was 900 to 1800 mg/mL (≈ 674 to 1350 mM).

As to `COc1ccc(N(c2ccc(OC)cc2)c2ccc(-c3ccc(N(c4ccc(OC)cc4)c4ccc(-c5ccc(N(c6ccc(OC)cc6)c6ccc(-c7ccc(N(c8ccc(OC)cc8)c8ccc(OC)cc8)cc7)cc6)c(C)c5)cc4C)cc3)cc2)cc1` [ID631], the “glass transition temperature Tg” value in series [1] came out at 134 °C. Also, the “decomposition temperature Td” value in series [2] was found to be 440 °C. In addition, the solubility was over 1300 mg/mL in series [3] (solubility L in chlorobenzene); 500 to 1000 mg/mL (≈ 422 to 845 mM) in series [3] (solubility in Anisole); 700 to 1400 mg/mL (≈ 591 to 1180 mM) in series [3] (solubility in Ethyl acetate); 1000 to 2000 mg/mL (≈ 845 to 1690 mM) in series [3] (solubility in Tetrahydrofuran); 500 to 1000 mg/mL (≈ 422 to 845 mM) in series [3] (solubility in Toluene).
